Assay [1] addresses recombinant ROCK1 (amino acids 1-535) (Homo sapiens (Human), UniProt Q13464). Description: Z'-lyte kinase assay, ROCK1. Type of assay: biochemical. The conditions noted are these: for inhibition at 0.5 µM: read-out: ROCK1 % inh (0.5 μM). As for the experimental part: (§1) Determination of compounds ROCK inhibitory activity in vitro (Z'lyte assay): recombinant ROCK1 (amino acids 1-535) and ROCK2 (amino acids 1-552) proteins were purchased from ThermoFisher Scientific. Compounds activities were measured by Z'-lyte kinase kit (ThermoFisher Scientific) and IC50s were calculated.
(§2) Compounds activities were measured by Z'-lyte kinase kit (ThermoFisher Scientific). […] IC50s were calculated using the GraphPad Prism software with kinase activities data that were collected from 9 points serial dilution of compounds treatment. The ROCK inhibition in A7R5 cells and NIH3T3 (Acta2-Luc) cells was performed as described above.
(§3) The percent inhibition rate was calculated by normalizing the kinase activity value obtained with compound treatment against DMSO control value and then applied to the equation, […]. IC50's were calculated using the nonlinear regression curve fit function of the GraphPad Prism software with kinase activities data measured with 9 points 2-fold serial dilution of compounds treatment.

Assay [2] concerns ppMlc (T18/S19) levels in A7R5 cells. Description: A7R5 in-cell ELISA assay (ppMlc). Type of assay: cell-based, rat. As for the experimental part: Determination of compounds ROCK inhibitory activity in A7R5 cells: rat aortic smooth muscle cell line A7R5 cells were maintained and treated in DMEM medium with 10% of fetal bovine serum. Cells were seeded with density of 5,000 cells/well in 96-well plates for 24 hours and subsequently treated 90 min with testing compounds. Cells were then fixed and processed according to the In-Cell ELISA Colorimetric Detection Kit manual (Thermo Scientific).
A7R5 cells were treated with 9 points 2 fold serial dilution of compounds and ppMlc (T18/S19) levels were determined in order to calculate the cellular IC50s of the compounds.
An A7R5 in-cell ELISA assay was performed to determine ROCK inhibition of test articles. A7R5 cells were treated with 9 points 2-fold serial dilution of compounds and ppMlc (T18/S19) levels were determined to calculate cellular IC50 values of the compounds. […] A7R5 cells were treated with 9 points 2-fold serial dilution of compounds and ppMlc (T18/S19) levels were determined to calculate cellular IC50 values of the compounds using the nonlinear regression curve fit function of the GraphPad Prism software.
Background: An ELISA detects its analyte on a solid surface through an enzyme-linked reagent.

The target of assay [3] is recombinant ROCK2 (amino acids 1-552) (Homo sapiens (Human), UniProt O75116). Description: Z'-lyte kinase assay, ROCK2. Format: biochemical. As to conditions: for inhibition at 0.5 µM: read-out: ROCK2 % inh (0.5 μM). On the procedure: as §1, §2, §3
Assay [4] has as its system ACTA2-promoter-driven-luciferase in NIH3T3 cells. Description: NIH3T3 Acta2-promoter driven-luciferase assay. Type of assay: cell-based. The conditions noted are these: Mus musculus, plus TGFβ1, 24 hr, read-out: NIH3T3, Acta2-luc, IC50. As for the experimental part:
NIH3T3 cells Acta2-promoter driven-luciferase assay: A NIH3T3 cell line stably expressing a luciferase reporter driven by the human ACTA2 gene promoter (−1000-1 bp) was established (NIH3T3-Acta2-luciferase). The cells were plated to confluence and treated with the test compounds plus TGFβ1 for 24 hr. Cells were then lysed and luciferase activity was measured using the LightSwitch luciferase kit from Active Motif.
ROCK inhibitors can be effectively rank ordered by ACTA2-promoter-driven-luciferase reporter cell assay. NIH3T3 cells stably expressing ACTA2-promoter-driven-luciferase were applied to measure ROCK compounds functional IC50's in cells. Cells were plated in 96 well plates to confluence and treated with 9 points serial dilution of compounds in combination with TGFβ1 for 24 hr. Luciferase activities were measured and compound's IC50's were calculated using the nonlinear regression curve fit function of the GraphPad Prism software. Compounds of the invention gave in cell IC50's under 200 nM, see FIG. 1c.

[5] abbreviates: Rattus norvegicus, A7R5, A7R5 cells, Table 2, read-out: pMLC IC50 (nM) A7R5.

Structures are written as SMILES. Read-outs that look alike come from different tables or passages of the source. Bounds are passed on as bounds.

Sequence of recombinant ROCK2 (amino acids 1-552) (O75116 1-552): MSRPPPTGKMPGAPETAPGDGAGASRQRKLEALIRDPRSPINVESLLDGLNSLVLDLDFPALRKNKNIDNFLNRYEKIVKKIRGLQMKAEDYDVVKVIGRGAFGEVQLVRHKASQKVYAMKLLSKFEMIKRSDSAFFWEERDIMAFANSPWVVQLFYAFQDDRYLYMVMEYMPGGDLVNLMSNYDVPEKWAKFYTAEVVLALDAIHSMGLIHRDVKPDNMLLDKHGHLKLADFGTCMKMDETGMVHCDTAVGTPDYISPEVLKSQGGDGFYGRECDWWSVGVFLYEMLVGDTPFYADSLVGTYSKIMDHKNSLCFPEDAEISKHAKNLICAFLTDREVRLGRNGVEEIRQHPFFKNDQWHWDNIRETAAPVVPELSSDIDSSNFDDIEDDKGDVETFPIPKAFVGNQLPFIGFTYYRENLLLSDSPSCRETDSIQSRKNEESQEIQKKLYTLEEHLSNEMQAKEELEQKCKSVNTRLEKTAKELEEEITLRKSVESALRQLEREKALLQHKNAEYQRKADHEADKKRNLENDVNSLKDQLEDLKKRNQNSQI
Sequence of recombinant ROCK1 (amino acids 1-535) (Q13464 1-535): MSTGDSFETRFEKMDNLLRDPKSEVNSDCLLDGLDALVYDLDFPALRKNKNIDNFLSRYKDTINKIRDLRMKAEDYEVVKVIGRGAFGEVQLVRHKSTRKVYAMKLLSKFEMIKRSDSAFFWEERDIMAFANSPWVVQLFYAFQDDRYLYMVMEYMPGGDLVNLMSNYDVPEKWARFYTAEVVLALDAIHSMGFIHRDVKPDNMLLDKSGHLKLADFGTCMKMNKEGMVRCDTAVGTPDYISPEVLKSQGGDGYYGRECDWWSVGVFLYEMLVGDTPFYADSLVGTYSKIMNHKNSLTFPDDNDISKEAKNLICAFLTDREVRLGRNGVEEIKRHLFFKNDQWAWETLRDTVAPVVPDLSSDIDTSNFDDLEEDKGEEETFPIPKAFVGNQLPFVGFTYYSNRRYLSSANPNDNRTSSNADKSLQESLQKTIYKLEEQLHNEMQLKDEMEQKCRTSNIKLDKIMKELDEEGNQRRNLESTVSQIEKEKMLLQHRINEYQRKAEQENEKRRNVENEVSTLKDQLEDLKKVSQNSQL

A word on the IC50: it is the point on the concentration scale where inhibition reaches its midpoint. Regarding `CNC(C(=O)Nc1ccc(-c2cn[nH]c2)cc1)c1ccccc1OC` (stereo not drawn) [Example 8, N-(4-(1H-pyrazol-4-yl)phenyl)-2-(2-methoxyphenyl)-2-(methylamino)acetamide], the IC50 in assay [1] is 12 nM; in assay [2] (setting [5]), 517 nM; in assay [2] (Rattus norvegicus, A7R5, A7R5 cells, ppMlc (T18/S19), in-cell ELISA, read-out: ppMlc IC50), 517 nM; in assay [3], 3 nM.
Take `CNC(C(=O)Nc1ccc(-c2cn[nH]c2)cc1)c1cccc(F)c1` (stereo not drawn) [Example 18, N-(4-(1H-pyrazol-4-yl)phenyl)-2-(3-fluorophenyl)-2-(methylamino)acetamide]: the IC50 in assay [4] came out at 464 nM; in assay [2] (setting [5]) it was 504 nM; in assay [3] it was 10 nM. Moreover, the figures for the inhibition at 0.5 µM in assay [1] and in assay [3] were 92% and 89%, respectively.
For `CNC(C(=O)Nc1ccc(-c2cn[nH]c2)cc1)c1ccc(F)cc1` (stereo not drawn) [Example 19, N-(4-(1H-pyrazol-4-yl)phenyl)-2-(4-fluorophenyl)-2-(methylamino)acetamide], the IC50 in assay [4] was determined as 190 nM; in assay [2] (setting [5]) it was 355 nM; in assay [3] it was 4.8 nM. Further, the inhibition at 0.5 µM in assay [1] turned out to be 96%; in assay [3], 90%.
For `CNC(C(=O)Nc1ccc(-c2cn[nH]c2)cc1)c1cccc(Cl)c1` (stereo not drawn) [Example 20, N-(4-(1H-pyrazol-4-yl)phenyl)-2-(3-chlorophenyl)-2-(methylamino)acetamide], in that order: 157 nM, 263 nM, 1.7 nM, 98% and 94%.
Take `CNC(C(=O)Nc1ccc(-c2cn[nH]c2)cc1)c1cccc(OC(F)F)c1` (stereo not drawn) [Example 24, N-(4-(1H-pyrazol-4-yl)phenyl)-2-(3-(difluoromethoxy)phenyl)-2-(methylamino)acetamide]: the 50% inhibitory concentration (IC50) in assay [4] was found to be 1710 nM; in assay [1], 88 nM; in assay [2] (setting [5]), 334 nM; in assay [3] it was 22 nM. The inhibition at 0.5 µM in assay [3] turned out to be 97%.
For `CNC(C(=O)Nc1ccc(-c2cn[nH]c2)cc1)c1ccc2c(C)n[nH]c2c1` (stereo not drawn) [Example 33, N-(4-(1H-pyrazol-4-yl)phenyl)-2-(3-methyl-1H-indazol-6-yl)-2-(methylamino)acetamide], the IC50 in assay [4] was 1480 nM; in assay [1], 85 nM; in assay [2] (setting [5]), 913 nM; in assay [3], 29 nM.
Turning to `COCCNC(C(=O)Nc1ccc(-c2cn[nH]c2)c(OC)c1)c1cccc(OC)c1` (stereo not drawn) [Example 56, N-(3-methoxy-4-(1H-pyrazol-4-yl)phenyl)-2-((2-methoxyethyl)amino)-2-(3-methoxyphenyl)acetamide], the IC50 in assay [4] was found to be 78 nM; in assay [2] (setting [5]), 115 nM; in assay [3], 5.3 nM.
On to `COc1cccc(C(NCCN(C)C)C(=O)Nc2ccc(-c3cn[nH]c3)cc2)c1` (stereo not drawn) [Example 57, N-(4-(1H-pyrazol-4-yl)phenyl)-2-((2-(dimethylamino)ethyl)amino)-2-(3-methoxyphenyl)acetamide], for which the IC50 turned out to be 175 nM in assay [4], 74 nM in assay [2] (setting [5]) and 10 nM in assay [3].
As for `COCCN[C@@H](C(=O)Nc1ccc(-c2cn[nH]c2)cc1)c1cccc(OC)c1` [Example 58, (R)—N-(4-(1H-pyrazol-4-yl)phenyl)-2-((2-methoxyethyl)amino)-2-(3-methoxyphenyl)acetamide], the IC50 in assay [4] turned out to be 74 nM; in assay [1], 57 nM; in assay [2] (setting [5]), 484 nM; in assay [3], 12 nM.
With `COCCN[C@H](C(=O)Nc1ccc(-c2cn[nH]c2)cc1)c1cccc(OC)c1` [Example 59, (S)—N-(4-(1H-pyrazol-4-yl)phenyl)-2-((2-methoxyethyl)amino)-2-(3-methoxyphenyl)acetamide], the IC50 in assay [4] is greater than 5000 nM; in assay [1] it was 759 nM; in assay [2] (A7R5 cells, Table 2, read-out: pMLC IC50 (nM) A7R5), 5550 nM; in assay [2] (setting [5]) it was 4170 nM; in assay [3], 239 nM.
Regarding `COc1cccc([C@H](NCCN(C)C)C(=O)Nc2ccc(-c3cn[nH]c3)cc2)c1` [Example 60, (S)—N-(4-(1H-pyrazol-4-yl)phenyl)-2-((2-(dimethylamino)ethyl)amino)-2-(3-methoxyphenyl)acetamide], the IC50 is 1410 nM in assay [4], 258 nM in assay [1], 695 nM in assay [2] (setting [5]) and 98 nM in assay [3].
With `COc1cccc([C@@H](NCCN(C)C)C(=O)Nc2ccc(-c3cn[nH]c3)cc2)c1` [Example 61, (R)—N-(4-(1H-pyrazol-4-yl)phenyl)-2-((2-(dimethylamino)ethyl)amino)-2-(3-methoxyphenyl)acetamide], the IC50 in assay [4] was determined as 48 nM; in assay [1], 7.7 nM; in assay [2] (setting [5]) it was 35 nM; in assay [3] it was 2.9 nM.
With `CN[C@H](C(=O)Nc1ccc(-c2cn[nH]c2)cc1)c1ccc(Cl)cc1` [Example 64, (S)—N-(4-(1H-pyrazol-4-yl)phenyl)-2-(4-chlorophenyl)-2-(methylamino)acetamide], the IC50 in assay [4] amounted to 227 nM; in assay [2] (setting [5]), 379 nM; in assay [3] it was 24 nM.
As for `CN[C@@H](C(=O)Nc1ccc(-c2cn[nH]c2)cc1)c1ccc(Cl)cc1` [Example 65, (R)—N-(4-(1H-pyrazol-4-yl)phenyl)-2-(4-chlorophenyl)-2-(methylamino)acetamide], the IC50 in assay [4] came to 51 nM; in assay [2] (setting [5]) it was 65 nM; in assay [3], 1.2 nM.
As for `CNC(=O)c1cccc(C(NC)C(=O)Nc2ccc(-c3cn[nH]c3)cc2)c1` (stereo not drawn) [Example 67, 3-(2-((4-(1H-pyrazol-4-yl)phenyl)amino)-1-(methylamino)-2-oxoethyl)-N-methylbenzamide], the results for the concentration for half-maximal inhibition (IC50) in assay [4], in assay [2] (setting [5]) and in assay [3] were 296 nM, 269 nM and 1.9 nM, respectively.
With `CNC(C(=O)Nc1ccc(-c2cn[nH]c2)cc1)c1ccc(C(=O)O)cc1` (stereo not drawn) [Example 68, 4-(2-((4-(1H-pyrazol-4-yl)phenyl)amino)-1-(methylamino)-2-oxoethyl)benzoic acid], the values for the IC50 in assay [4], in assay [2] (setting [5]) and in assay [3] were greater than 5000 nM, greater than 5000 nM and 451 nM, respectively.
In the case of `CNC(=O)c1ccc(C(NC)C(=O)Nc2ccc(-c3cn[nH]c3)cc2)cc1` (stereo not drawn) [Example 69, 4-(2-((4-(1H-pyrazol-4-yl)phenyl)amino)-1-(methylamino)-2-oxoethyl)-N-methylbenzamide], the IC50 in assay [4] was greater than 5000 nM; in assay [2] (setting [5]), greater than 5000 nM; in assay [3], 400 nM.
For the compound `CNC(C(=O)Nc1cc(F)c(-c2cn[nH]c2)cc1OCCN(C)C)c1cccc(OC)c1` (stereo not drawn) [Example 71, N-(2-(2-(dimethylamino)ethoxy)-5-fluoro-4-(1H-pyrazol-4-yl)phenyl)-2-(3-methoxyphenyl)-2-(methylamino)acetamide], the IC50 in assay [4] came out at 301 nM; in assay [2] (setting [5]), 57 nM; in assay [3] it was 3 nM.
Turning to `CN[C@@H](C(=O)Nc1cc(F)c(-c2cn[nH]c2)cc1OCCN(C)C)c1cccc(OC)c1` [Example 72, (R)—N-(2-(2-(dimethylamino)ethoxy)-5-fluoro-4-(1H-pyrazol-4-yl)phenyl)-2-(3-methoxyphenyl)-2-(methylamino)acetamide], the figures for the IC50 in assay [4], in assay [2] (setting [5]) and in assay [3] were 984 nM, 382 nM and 46 nM, respectively.
With `CN[C@H](C(=O)Nc1cc(F)c(-c2cn[nH]c2)cc1OCCN(C)C)c1cccc(OC)c1` [Example 73, (S)—N-(2-(2-(dimethylamino)ethoxy)-5-fluoro-4-(1H-pyrazol-4-yl)phenyl)-2-(3-methoxyphenyl)-2-(methylamino)acetamide], the values for the IC50 in assay [4], in assay [2] (setting [5]) and in assay [3] were 122 nM, 15 nM and 1.6 nM, respectively.

These data come from patent US11479533B2, “Inhibitors of Rho associated coiled-coil containing protein kinase” (KADMON CORPORATION, LLC, priority 2017, dated 2022).
